Here are results for 15 compounds from patent publication EP0155872A1, “Process for reducing the lignin content of plants, and compositions for putting it into use” (priority 1984, dated 1985).

“Also recorded” adds a separate entry of the source. Read-outs that look alike come from different tables or passages of the source.

One assay has as its system cultures de tabac. To be noted: prior art; cited from earlier work.
Another assay concerns the target T1, CAD de peuplier (Populus deltoides, UniProt P31657).
T1 construct: CAD de peuplier isolée selon la méthode deSARNI et al,1984; from tissue; host or cells: poplar plant material
T1 sequence (P31657 1-357): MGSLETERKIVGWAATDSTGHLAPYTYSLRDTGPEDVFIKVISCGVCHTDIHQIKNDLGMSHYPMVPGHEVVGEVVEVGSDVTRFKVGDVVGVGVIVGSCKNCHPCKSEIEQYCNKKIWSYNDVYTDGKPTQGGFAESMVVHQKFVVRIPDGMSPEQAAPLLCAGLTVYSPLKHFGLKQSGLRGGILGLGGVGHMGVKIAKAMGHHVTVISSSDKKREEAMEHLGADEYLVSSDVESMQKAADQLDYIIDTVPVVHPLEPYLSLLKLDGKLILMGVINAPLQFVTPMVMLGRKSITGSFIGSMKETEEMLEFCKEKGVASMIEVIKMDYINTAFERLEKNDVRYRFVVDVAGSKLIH
As to the kind of experiment: In vitro inhibition of isolated poplar cinnamyl alcohol dehydrogenase (CAD) at 2 mM. In kind it is biochemical. The settings on record: for inhibition at 2000 µM / Inhibition à 2mM %: 2mM, CAD de peuplier; for inhibition at 2000 µM: read-out: Inhibition à 2mM %. An excerpt: Après réacidification à pH2 par de l'acide chlorhydrique 3N et centrifugation, le surnageant contenant les acides cinnamiques est séparé du résidu. Les "poudres alcool-benzène" ainsi hydrolysées sont lavées par de l'eau distillée jusqu'à pH neutre et séchées, sous vide dans un dessiccateur en présence de silica.-gel. Les teneurs en lignines sont estimées par la méthode gravimétriques de KLASON (Tappi Standard method Tl2m) modifiée par EFFLAND. Tappi, 60, p 143-144, 1977. On rapporte dans le tableau 1) suivant les résultats obtenus concernant l'effet mesuré in vitro d'inhibiteurs selon l'invention à une concentration de 2mM vis-à-vis de la CAD de peuplier isolée selon la méthode deSARNI et al,1984,EUROP JOURNAL OF BIOCHEMISTRY, 18(1),139, 259-265 On indique également dans ce tableau les résultats obtenus avec des composés portant des substitutions différentes de ceux mis enoe uvre dans l'invention. Les chiffres indiqués entre parenthèses a côté des formules correspondent aux composés identifiés dans les exemples de préparation 2 et 3.
On rapporte dans le tableau 2 suivant les pourcentages d'inhibition de la CAD obtenus en utilisant, à raison de 2 mM, différents composés capables de complexer Zn.

A further assay concerns the target T2, CAD (Populus deltoides, UniProt P31657).
T2 sequence (P31657 1-357): T1 sequence (P31657 1-357)
As to the kind of experiment: In vitro CAD activity with nitro derivatives, physiological direction (aldehyde reduction, NADPH oxidation at 340 nm). To be noted: read-out: % d'inhibition (activité CAD); for inhibition at 230 µM: Concentration finale dans le milieu 0,230 mM; for inhibition at 375 µM: Concentration finale dans le milieu 0,375 mM. It counts as biochemical. An excerpt: η) Effets des dérivés nitrés sur l'activité CAD "in vitro". Concentration finale % d'inhibition
Les mesures ont été réalisées dans le sens physiologique (aldéhyde alcool), c'est-à-dire en suivant la réduction de l'aldéhyde (oxydation du NADPH mesurée à 340 nm).(Les tests sont plus sensibles et plus proches du milieu "in vivo".

`NOC(Cc1ccccc1)C(=O)O` (racemic) [acide D,L-α-aminoxy-β -phényl-propionique]: the “réduction des phénols totaux” value with cultures de tabac is on record as ~30%. For orientation: inhibition means the relative decrease from the control value, in per cent. Turning to `O=C(O)CSCC(=O)c1ccccc1` [Acide oxo-5-phényl-5-thia-3, reference compound], the inhibition at 2000 µM on CAD de peuplier stood at 40%.

On to `O=C(O)CS(=O)(=O)Nc1ccccc1` [NPS, N-(phényl) sulfamoyle], for which, on CAD de peuplier, the inhibition at 2000 µM is 45%. With `CC(C)[S+]([O-])Nc1ccccc1` (stereo not shown) [NPSP, N-(phényl) sulfinamoyl d'isopropyle, reference compound], on CAD de peuplier, the “inhibition de l'activité CAD (in words)” value is reported as “inefficaces; also recorded: n'inhibent pas” and the inhibition at 2000 µM was 0%. Regarding `CC(C)(C)OC(=O)CC(=O)Nc1ccccc1` [PCAD, Phényl(carbamoyl) acétate de tertiobutyle, reference compound], the inhibition at 2000 µM on CAD de peuplier came out at 0%.

Regarding `CC(C)(C)OC(=O)C[S+]([O-])Nc1ccccc1` (stereo not shown) [composé 1, N-(phényl)sulfinamoyl acétate de tertiobutyle], the inhibition at 2000 µM on CAD de peuplier is 50%. Turning to `CC(C)(C)OC(=O)CS(=O)(=O)Nc1ccccc1` [composé 7a, N-(phényl)sulfamoyl acétate de tertiobutyle], at CAD de peuplier, the inhibition at 2000 µM was determined as 50%. Still for that read-out and setting: as for `CC(C)(C)OC(=O)CS(=O)(=O)NC1CCCCC1` [compound 14, N-(Cyclohexyl)sulfamoyl acétate de tertiobutyle], the figure is 0%. As for `CC(C)(C)OC(=O)C(C)(C)[S+]([O-])Nc1ccccc1` (stereo not shown) [compound 15, N-(Phényl)sulfinamoyl isobutyrate de tertiobutyle], the inhibition at 2000 µM at CAD de peuplier turned out to be 0%. Also, the “inhibition de l'activité CAD (in words)” value on CAD de peuplier (listed as NPSI) is reported as “inefficaces; also recorded: n'inhibent pas”.

As to `CC(C)(C)OC(=O)C[S+]([O-])NC1CCCCC1` (stereo not shown) [compound 17, N-(Cyclohexyl)sulfinamoyl acétate de tertiobutyle], at CAD de peuplier, the inhibition at 2000 µM came to 0%.

Turning to `CC(C)(C)OC(=O)C[S+]([O-])Nc1ccc([N+](=O)[O-])cc1O` (stereo not shown) [nitro OH PAS], at CAD, the inhibition at 230 µM was found to be 5% and the inhibition at 375 µM was determined as 41%. Further, the inhibition at 500 µM on CAD (Concentration finale dans le milieu 0,500 mM) stood at 100%.

Regarding `CC(C)(C)OC(=O)C[S+]([O-])Nc1ccc([N+](=O)[O-])cc1` (stereo not shown) [nitro PAS], the inhibition at 125 µM at CAD (Concentration finale dans le milieu 0,125 mM) was 14%. In addition, at CAD (Concentration finale dans le milieu 0,188 mM), the inhibition at 188 µM is 28%. Moreover, on CAD, the inhibition at 230 µM came out at 68% and the inhibition at 375 µM came out at 100%. For “(Hydroxy-4-methoxy-3-phényl)-3-Hydroxy-3-propanethiate de 5-phényle [HMHP, reference compound]”, the “Inhibition à 2mM %” value at CAD de peuplier is 40%.

Take “N-(Thiazolyl-2) Sulfanilamide [NTS, reference compound]”: the “Inhibition à 2mM %” value at CAD de peuplier was found to be 55%. Still for that read-out and setting: for “N-tert-butyl-methoxy-2 (Iminomethyl) - 4 phénol [BIP, reference compound]” the value was 50%.
